This test has as its target T1, IKK-2 (Homo sapiens, UniProt O14920).
T1 construct: endogenous in cells; host or cells: primary keratinocytes from a healthy control and from Patient#1
T1 sequence (O14920 1-756): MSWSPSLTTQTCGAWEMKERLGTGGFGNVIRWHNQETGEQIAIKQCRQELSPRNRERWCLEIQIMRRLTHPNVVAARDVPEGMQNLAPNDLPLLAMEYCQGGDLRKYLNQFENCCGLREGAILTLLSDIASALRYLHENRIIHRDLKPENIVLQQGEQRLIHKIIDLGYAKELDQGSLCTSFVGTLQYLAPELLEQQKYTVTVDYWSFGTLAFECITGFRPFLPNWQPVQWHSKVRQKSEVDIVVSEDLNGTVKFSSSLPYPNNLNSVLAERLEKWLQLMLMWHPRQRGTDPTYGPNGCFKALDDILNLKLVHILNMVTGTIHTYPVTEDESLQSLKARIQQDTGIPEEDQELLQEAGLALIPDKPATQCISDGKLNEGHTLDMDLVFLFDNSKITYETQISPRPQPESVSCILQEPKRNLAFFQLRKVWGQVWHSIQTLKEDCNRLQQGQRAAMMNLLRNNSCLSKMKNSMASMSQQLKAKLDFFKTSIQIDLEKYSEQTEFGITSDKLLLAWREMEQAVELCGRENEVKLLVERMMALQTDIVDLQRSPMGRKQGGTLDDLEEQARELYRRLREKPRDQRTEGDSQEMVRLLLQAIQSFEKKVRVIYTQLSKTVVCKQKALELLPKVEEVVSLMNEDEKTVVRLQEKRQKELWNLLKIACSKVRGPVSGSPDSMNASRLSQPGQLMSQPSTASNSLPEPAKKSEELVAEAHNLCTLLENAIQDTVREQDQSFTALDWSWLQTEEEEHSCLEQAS
In words: Inhibition of IKK-2 by ML120B in keratinocytes (IL8 mRNA by RT-qPCR). The format is cell-based. To be noted: Patient#1 keratinocytes; ML120B 20 μM preincubated 1 h, then 10 ng/ml IL-1β, 24 h. How it is done: Total RNAs were isolated from cultured keratinocytes, HEK293T cells and frozen skin biopsies from the two patients and controls using the RNeasy Plus Minikit (Qiagen GmbH, Hilden, Germany), according to the manufacturer's instructions. RNA samples were reverse-transcribed into cDNA using the High Capacity cDNA Reverse Transcriptase Kit (Applied Biosystems, Foster City, Calif., USA). Real-time PCR was carried out using the Fast SYBR Green PCR Master Mix (PE Applied Biosystems) on an ABI prism 7000 (PE Applied Biosystems). RT-qPCR primers were designed using the sequences available in Ensembl and spanned an intron-exon boundary. The amounts of the various mRNAs were normalized against the amount of beta actin RNA measured by RT-qPCR in each sample. The results were analyzed with DataAssist® (version 3.01, Applied Biosystems), which uses the comparative Ct (ddCt) method.
Keratinocytes from a healthy control and from Patient#1 were seeded into 12-well plates (100 000 cells/well). 24 hours later, keratinocytes were preincubated with ML120B 20 μM at 37° C. for 1 h and then stimulated with 10 ng/ml IL-1β. 24 hours after the stimulation, the cells were pelleted for RNA extraction. ML120B was sent as a gift by Emmanuel Laplantine (Institut Pasteur, Paris, France).
In general terms: Quantitative PCR measures a nucleic acid by following its amplification.

Regarding `COc1c(Cl)cc2c([nH]c3cnccc32)c1NC(=O)c1cccnc1C` [ML120B], the “production of IL8” value is given as “restored the normal production of IL8”.

(Values after US20190125826A1, “METHODS AND PHARMACEUTICAL COMPOSITION FOR THE TREATMENT OF INFLAMMATORY SKIN DISEASES ASSOCIATED WITH DESMOGLEIN-1 DEFICIENCY” (INSERM (INSTITUT NATIONAL DE LA SANTÉ ET DE LA MÉDICALE), priority 2016, published 2019).)
